Reference: PubChem BioAssay (NCI)
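Compound exposure: 48 hours, 5 concentrations, 96-well plates. At the GI50, growth is halved. At the TGI there is no net growth.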

Experiments:
Assay in all cases: inhibition of tumour cell growth, NCI panel, 48 h
786-0 renal = test system: 786-0 renal
A498 renal = test system: A498 renal
A549 NSCLC = test system: A549 NSCLC
ACHN renal = test system: ACHN renal
BT-549 breast = test system: BT-549 breast
CAKI-1 renal = test system: CAKI-1 renal
CCRF-CEM leukemia = test system: CCRF-CEM leukemia
COLO 205 colon = test system: COLO 205 colon
DU-145 prostate = test system: DU-145 prostate
EKVX NSCLC = test system: EKVX NSCLC
HCC-2998 colon = test system: HCC-2998 colon
HCT-116 colon = test system: HCT-116 colon
HCT-15 colon = test system: HCT-15 colon
HL-60(TB) leukemia = test system: HL-60(TB) leukemia
HOP-62 NSCLC = test system: HOP-62 NSCLC
HOP-92 NSCLC = test system: HOP-92 NSCLC
HS 578T breast = test system: HS 578T breast
HT29 colon = test system: HT29 colon
IGROV1 ovarian = test system: IGROV1 ovarian
K-562 leukemia = test system: K-562 leukemia
KM12 colon = test system: KM12 colon
LOX IMVI melanoma = test system: LOX IMVI melanoma
M14 melanoma = test system: M14 melanoma
MALME-3M melanoma = test system: MALME-3M melanoma
MCF7 breast = test system: MCF7 breast
MDA-MB-231 breast = test system: MDA-MB-231 breast
MDA-MB-435 = test system: MDA-MB-435
MDA-MB-468 breast = test system: MDA-MB-468 breast
MOLT-4 leukemia = test system: MOLT-4 leukemia
NCI-H226 lung = test system: NCI-H226 lung
NCI-H23 lung = test system: NCI-H23 lung
NCI-H460 lung = test system: NCI-H460 lung
NCI-H522 lung = test system: NCI-H522 lung
OVCAR-3 ovarian = test system: OVCAR-3 ovarian
OVCAR-4 ovarian = test system: OVCAR-4 ovarian
OVCAR-5 ovarian = test system: OVCAR-5 ovarian
OVCAR-8 ovarian = test system: OVCAR-8 ovarian
PC-3 prostate = test system: PC-3 prostate
RPMI-8226 leukemia = test system: RPMI-8226 leukemia
RXF 393 renal = test system: RXF 393 renal
SF-268 CNS = test system: SF-268 CNS
SF-295 CNS = test system: SF-295 CNS
SF-539 CNS = test system: SF-539 CNS
SK-MEL-2 melanoma = test system: SK-MEL-2 melanoma
SK-MEL-28 melanoma = test system: SK-MEL-28 melanoma
SK-MEL-5 melanoma = test system: SK-MEL-5 melanoma
SK-OV-3 ovarian = test system: SK-OV-3 ovarian
SN12C renal = test system: SN12C renal
SNB-19 CNS = test system: SNB-19 CNS
SNB-75 CNS = test system: SNB-75 CNS
SR leukemia = test system: SR leukemia
SW-620 colon = test system: SW-620 colon
T-47D breast = test system: T-47D breast
TK-10 renal = test system: TK-10 renal
U251 CNS = test system: U251 CNS
UACC-257 melanoma = test system: UACC-257 melanoma
UACC-62 melanoma = test system: UACC-62 melanoma
UO-31 renal = test system: UO-31 renal

With CC1=C(C)C(=O)C(NCCN2CCOCC2)=C(Br)C1=O the GI50 (786-0 renal) was 17.8 µM, the TGI (786-0 renal) was 32.1 µM and the GI50 (A498 renal) was 19.2 µM. The TGI (A498 renal) was 34 µM, the GI50 (A549 NSCLC) was 17.4 µM and the TGI (A549 NSCLC) was 34 µM. The GI50 (ACHN renal) was 13.8 µM, the TGI (ACHN renal) was 26.8 µM and the GI50 (BT-549 breast) was 13.7 µM. The TGI (BT-549 breast) was 26.6 µM, the GI50 (CAKI-1 renal) was 10.7 µM and the TGI (CAKI-1 renal) was 23.3 µM. For the same compound, the GI50 (CCRF-CEM leukemia) was 3.44 µM, the TGI (CCRF-CEM leukemia) was > 100 µM and the GI50 (COLO 205 colon) was 17.9 µM. For the same compound, the TGI (COLO 205 colon) was 33.6 µM, the GI50 (DU-145 prostate) was 12.7 µM and the TGI (DU-145 prostate) was 25.7 µM. It also gave a GI50 (EKVX NSCLC) of 12.8 µM, a TGI (EKVX NSCLC) of 25.9 µM and a GI50 (HCC-2998 colon) of 15.3 µM. The TGI (HCC-2998 colon) was 28.7 µM, the GI50 (HCT-116 colon) was 2.93 µM and the TGI (HCT-116 colon) was 10.9 µM. The GI50 (HCT-15 colon) was 15.9 µM, the TGI (HCT-15 colon) was 30.9 µM and the GI50 (HL-60(TB) leukemia) was 2.46 µM. It also gave a TGI (HL-60(TB) leukemia) of 7.24 µM, a GI50 (HOP-62 NSCLC) of 14.6 µM and a TGI (HOP-62 NSCLC) of 28.1 µM. It also gave a GI50 (HOP-92 NSCLC) of 13.3 µM, a TGI (HOP-92 NSCLC) of 28 µM and a GI50 (HS 578T breast) of 9.04 µM. The TGI (HS 578T breast) was 34.6 µM, the GI50 (HT29 colon) was 16 µM and the TGI (HT29 colon) was 31.3 µM. It also gave a GI50 (IGROV1 ovarian) of 10.5 µM, a TGI (IGROV1 ovarian) of 22.9 µM and a GI50 (K-562 leukemia) of 3.3 µM. For the same compound, the TGI (K-562 leukemia) was 61.9 µM, the GI50 (KM12 colon) was 16.7 µM and the TGI (KM12 colon) was 39.6 µM. The GI50 (LOX IMVI melanoma) was 2.33 µM, the TGI (LOX IMVI melanoma) was 8.36 µM and the GI50 (M14 melanoma) was 13.6 µM. For the same compound, the TGI (M14 melanoma) was 26.7 µM, the GI50 (MALME-3M melanoma) was 2.25 µM and the TGI (MALME-3M melanoma) was 5.37 µM. For the same compound, the GI50 (MCF7 breast) was 3.66 µM, the TGI (MCF7 breast) was 15.2 µM and the GI50 (MDA-MB-231 breast) was 5.65 µM. It also gave a TGI (MDA-MB-231 breast) of 18.7 µM, a GI50 (MDA-MB-435) of 1.81 µM and a TGI (MDA-MB-435) of 3.35 µM. It also gave a GI50 (MDA-MB-468 breast) of 0.222 µM, a TGI (MDA-MB-468 breast) of 0.885 µM and a GI50 (MOLT-4 leukemia) of 5.35 µM. The TGI (MOLT-4 leukemia) was 32.8 µM, the GI50 (NCI-H226 lung) was 12.1 µM and the TGI (NCI-H226 lung) was 26.7 µM. For the same compound, the GI50 (NCI-H23 lung) was 3.84 µM, the TGI (NCI-H23 lung) was 16.3 µM and the GI50 (NCI-H460 lung) was 16.1 µM. It also gave a TGI (NCI-H460 lung) of 34.2 µM, a GI50 (NCI-H522 lung) of 3.01 µM and a TGI (NCI-H522 lung) of 11.7 µM. The GI50 (OVCAR-3 ovarian) was 2.1 µM, the TGI (OVCAR-3 ovarian) was 7.16 µM and the GI50 (OVCAR-4 ovarian) was 5.02 µM. The TGI (OVCAR-4 ovarian) was 17.6 µM, the GI50 (OVCAR-5 ovarian) was 6.43 µM and the TGI (OVCAR-5 ovarian) was 19.3 µM. It also gave a GI50 (OVCAR-8 ovarian) of 3.84 µM, a TGI (OVCAR-8 ovarian) of 15.8 µM and a GI50 (PC-3 prostate) of 16.9 µM. The TGI (PC-3 prostate) was 50.6 µM, the GI50 (RPMI-8226 leukemia) was 13.9 µM and the TGI (RPMI-8226 leukemia) was 55 µM. The GI50 (RXF 393 renal) was 12.7 µM, the TGI (RXF 393 renal) was 25.3 µM and the GI50 (SF-268 CNS) was 12.8 µM. It also gave a TGI (SF-268 CNS) of 32 µM, a GI50 (SF-295 CNS) of 17.8 µM and a TGI (SF-295 CNS) of 31.9 µM. It also gave a GI50 (SF-539 CNS) of 17 µM, a TGI (SF-539 CNS) of 31.5 µM and a GI50 (SK-MEL-2 melanoma) of 11.7 µM. The TGI (SK-MEL-2 melanoma) was 24.2 µM, the GI50 (SK-MEL-28 melanoma) was 14.5 µM and the TGI (SK-MEL-28 melanoma) was 28 µM. It also gave a GI50 (SK-MEL-5 melanoma) of 11.6 µM, a TGI (SK-MEL-5 melanoma) of 23.8 µM and a GI50 (SK-OV-3 ovarian) of 12.5 µM. It also gave a TGI (SK-OV-3 ovarian) of 25.2 µM, a GI50 (SN12C renal) of 14.9 µM and a TGI (SN12C renal) of 28.2 µM. For the same compound, the GI50 (SNB-19 CNS) was 16.3 µM, the TGI (SNB-19 CNS) was 30.5 µM and the GI50 (SNB-75 CNS) was 18.5 µM. It also gave a TGI (SNB-75 CNS) of 34.2 µM, a GI50 (SR leukemia) of 19.2 µM and a TGI (SR leukemia) of 66.7 µM. The GI50 (SW-620 colon) was 2.94 µM, the TGI (SW-620 colon) was 14 µM and the GI50 (T-47D breast) was 2.01 µM. The TGI (T-47D breast) was 4.74 µM, the GI50 (TK-10 renal) was 19.2 µM and the TGI (TK-10 renal) was 33.3 µM. For the same compound, the GI50 (U251 CNS) was 12 µM, the TGI (U251 CNS) was 25.2 µM and the GI50 (UACC-257 melanoma) was 2.55 µM. The TGI (UACC-257 melanoma) was 7 µM, the GI50 (UACC-62 melanoma) was 5.78 µM and the TGI (UACC-62 melanoma) was 18.4 µM. For the same compound, the GI50 (UO-31 renal) was 11 µM and the TGI (UO-31 renal) was 23.2 µM.
